Test results reported in US20120053053A1, “PYRIMIDINE DERIVATIVES AND THEIR USE AS HERBICIDES” (SYNGENTA CROP PROTECTION, LLC, priority 2009, published 2012).

Experiments:
Format in all cases: in vivo
[1] = tested on: Amaranthus retoflexus (AMARE); experiment: Post-emergence biological efficacy (percentage damage); settings: dose 1,000 g/ha, evaluated after 13 days, 100=total damage, 0=no damage; for pest or weed control at 1000 g/ha: Amaranthus retroflexus, 312 h
Method: (§1) Seeds of Alopecurus myosuroides (ALOMY), Setaria faberi (SETFA), Echinochloa crus-galli (ECHCG), Solanum nigrum (SOLNI), Amaranthus retoflexus (AMARE) and Ipomea hederaceae (IPOHE) were sown in standard soil in pots. After cultivation for 8 days under controlled conditions in a glasshouse (at 24/16° C., day/night; 14 hours light; 65% humidity), the plants were sprayed with an aqueous spray solution derived from the formulation of the technical active ingredient in acetone/water (50:50) solution containing 0.5% Tween 20 (polyoxyethylene sorbitan monolaurate, CAS RN 9005-64-5) to give a final dose of 250 or 1000 g/ha of test compound. The test plants were then grown on under controlled conditions in a glasshouse (at 24/16° C., day/night; 14 hours light; 65% humidity) and watered twice daily. After 13 days the test was evaluated (100=total damage to plant; 0=no damage to plant).

Solanum nigrum (SOLNI) [2] = experiment: as above; settings: dose 1,000 g/ha, evaluated after 13 days, 100=total damage, 0=no damage; for pest or weed control at 1000 g/ha: Solanum nigrum, 312 h
Method: as §1

Setaria faberi (SETFA) [3] = experiment: as above; settings: dose 1,000 g/ha, evaluated after 13 days, 100=total damage, 0=no damage; for pest or weed control at 1000 g/ha: Setaria faberi, 312 h
Method: as §1

[4] = tested on: Ipomea hederaceae (IPOHE); experiment: as above; settings: dose 1,000 g/ha, evaluated after 13 days, 100=total damage, 0=no damage; for pest or weed control at 1000 g/ha: Ipomoea hederacea, 312 h
Method: as §1

[5] = tested on: Alopecurus myosuroides (ALOMY); experiment: as above; settings: dose 1,000 g/ha, evaluated after 13 days, 100=total damage, 0=no damage; for pest or weed control at 1000 g/ha: Alopecurus myosuroides, 312 h
Method: as §1

[6] = tested on: Echinochloa crus-galli (ECHCG); experiment: as above; settings: dose 1,000 g/ha, evaluated after 13 days, 100=total damage, 0=no damage; for pest or weed control at 1000 g/ha: Echinochloa crus-galli, 312 h
Method: as §1

[7] = tested on: Amaranthus retoflexus (AMARE); experiment: Pre-emergence biological efficacy (percentage damage); settings: dose 1,000 g/ha, evaluated after 13 days, 100=total damage, 0=no damage; for pest or weed control at 1000 g/ha: Amaranthus retroflexus, 312 h
Method: (§2) Seeds of Alopecurus myosuroides (ALOMY), Setaria faberi (SETFA), Echinochloa crus-galli (ECHCG), Solanum nigrum (SOLNI), Amaranthus retoflexus (AMARE) and Ipomea hederaceae (IPOHE) were sown in standard soil in pots. After cultivation for one day under controlled conditions in a glasshouse (at 24/16° C., day/night; 14 hours light; 65% humidity), the plants were sprayed with an aqueous spray solution derived from the formulation of the technical active ingredient in acetone/water (50:50) solution containing 0.5% Tween 20 (polyoxyethylene sorbitan monolaurate, CAS RN 9005-64-5) to give a final dose of 250 or 1000 g/ha of test compound. The test plants were then grown under controlled conditions in the glasshouse (at 24/16° C., day/night; 14 hours light; 65% humidity) and watered twice daily. After 13 days the test was evaluated (100=total damage to plant; 0=no damage to plant).

Solanum nigrum (SOLNI) [8] = experiment: as above; settings: dose 1,000 g/ha, evaluated after 13 days, 100=total damage, 0=no damage; for pest or weed control at 1000 g/ha: Solanum nigrum, 312 h
Method: as §2

Setaria faberi (SETFA) [9] = experiment: as above; settings: dose 1,000 g/ha, evaluated after 13 days, 100=total damage, 0=no damage; for pest or weed control at 1000 g/ha: Setaria faberi, 312 h
Method: as §2

[10] = tested on: Ipomea hederaceae (IPOHE); experiment: as above; settings: dose 1,000 g/ha, evaluated after 13 days, 100=total damage, 0=no damage; for pest or weed control at 1000 g/ha: Ipomoea hederacea, 312 h
Method: as §2

[11] = tested on: Alopecurus myosuroides (ALOMY); experiment: as above; settings: dose 1,000 g/ha, evaluated after 13 days, 100=total damage, 0=no damage; for pest or weed control at 1000 g/ha: Alopecurus myosuroides, 312 h
Method: as §2

[12] = tested on: Echinochloa crus-galli (ECHCG); experiment: as above; settings: dose 1,000 g/ha, evaluated after 13 days, 100=total damage, 0=no damage; for pest or weed control at 1000 g/ha: Echinochloa crus-galli, 312 h
Method: as §2

SMILES | pest or weed control at 1000 g/ha [1] [%] | pest or weed control at 1000 g/ha (Solanum nigrum (SOLNI) [2]) [%] | pest or weed control at 1000 g/ha (Setaria faberi (SETFA) [3]) [%] | pest or weed control at 1000 g/ha [4] [%] | pest or weed control at 1000 g/ha [5] [%] | pest or weed control at 1000 g/ha [6] [%] | pest or weed control at 1000 g/ha [7] [%] | pest or weed control at 1000 g/ha (Solanum nigrum (SOLNI) [8]) [%] | pest or weed control at 1000 g/ha (Setaria faberi (SETFA) [9]) [%] | pest or weed control at 1000 g/ha [10] [%] | pest or weed control at 1000 g/ha [11] [%] | pest or weed control at 1000 g/ha [12] [%] | also measured
COC(=O)c1nc(-c2ccc(C(C)=O)c(OC)c2F)nc(N)c1C(C)=O [Compound 65-53, 4-Amino-2-(2-fluoro-3-methoxy-4-methylcarbonyl-phenyl)-6-methoxycarbonyl-5-methylcarbonyl-pyrimidine] | 20 | 70 | 10 | 50 | 0 | 10 | 0 | 0 | 0 | 20 | 0 | 0 | 
C=Cc1c(N)nc(-c2ccc(C(F)(F)F)cc2)nc1C(=O)OC [Compound 31-61, 4-Amino-5-ethenyl-6-methoxycarbonyl-2-(4-trifluoromethyl-phenyl)-pyrimidine] | 70 | 70 | 0 | 10 | 20 | 0 | 10 | 0 | 0 | 0 | 0 | 0 | 
C=C(OCC)c1c(N)nc(-c2ccc(Cl)c(N(C)C)c2F)nc1C(=O)OC [Compound 33-67, 4-Amino-2-(4-chloro-3-dimethylamino-2-fluorophenyl)-5-(1-ethoxyethenyl)-6-methoxycarbonyl-pyrimidine] | 10 | 40 | 0 | 20 | 0 | 0 | 0 | 0 | 0 | 10 | 0 | 0 | 
COC(=O)COc1nc(C2CC2)nc(N)c1C [Compound 2-362, 4-amino-2-cyclopropyl-6-methoxycarbonylmethoxy-5-methylpyrimidine] | 80 | 80 | 70 | 80 | 40 | 60 | 40 | 10 | 40 | 30 | 40 | 10 | 
C=Cc1c(N)nc(-c2ccc(F)c(OC)c2)nc1C(=O)OC [Compound 42-61, 4-Amino-5-ethenyl-2-(4-fluoro-3-methoxyphenyl)-6-methoxycarbonyl-pyrimidine] | 100 | 30 | 40 | 10 | 30 | 30 | 60 | 20 | 20 | 0 | 10 | 10 | 
C=Cc1c(N)nc(-c2ccc(F)cc2)nc1C(=O)OC [Compound 41-61, 4-Amino-5-ethenyl-2-(4-fluorophenyl)-6-methoxycarbonyl-pyrimidine] | 100 | 90 | 10 | 60 | 20 | 10 | 100 | 0 | 10 | 40 | 20 | 10 | 
C=CCOC(=O)c1nc(-c2ccc(Cl)c(N(C)C)c2F)nc(N)c1C=C [Compound 33-395, 4-Amino-2-(4-chloro-3-dimethylamino-2-fluorophenyl)-5-ethenyl-6-(prop-2-enyloxy)carbonyl-pyrimidine] | 100 | 100 | 100 | 30 | 70 | 100 | 100 | 100 | 80 | 30 | 60 | 90 | 
C=Cc1c(N)nc(-c2ccc(Cl)c(OC)c2)nc1C(=O)OC [Compound 26-61, 4-Amino-2-(4-chloro-3-methoxyphenyl)-5-ethenyl-6-methoxycarbonyl-pyrimidine] | 100 | 80 | 0 | 70 | 50 | 60 | 100 | 80 | 0 | 20 | 0 | 0 | 
C/C=C/c1c(N)nc(-c2ccc(Cl)c(OC)c2F)nc1C(=O)OC [27-62 (E)] |  |  |  |  |  |  |  |  |  |  |  |  | Percentage damage AMARE, post-emergence [1]: 100%; Percentage damage SOLNI, post-emergence (Solanum nigrum (SOLNI) [2]): 100%; Percentage damage SETFA, post-emergence (Setaria faberi (SETFA) [3]): 100%; Percentage damage IPOHE, post-emergence [4]: 90%; Percentage damage ALOMY, post-emergence [5]: 90%; Percentage damage ECHCG, post-emergence [6]: 100%; Percentage damage AMARE, pre-emergence [7]: 50%; Percentage damage SOLNI, pre-emergence (Solanum nigrum (SOLNI) [8]): 80%; Percentage damage SETFA, pre-emergence (Setaria faberi (SETFA) [9]): 80%; Percentage damage IPOHE, pre-emergence [10]: 90%; Percentage damage ALOMY, pre-emergence [11]: 90%; Percentage damage ECHCG, pre-emergence [12]: 90%
C/C=C/c1c(N)nc(-c2ccc(Cl)c(N(C)C)c2F)nc1C(=O)OC [33-62 (E)] |  |  |  |  |  |  |  |  |  |  |  |  | Percentage damage AMARE, pre-emergence [7]: 100%; Percentage damage SOLNI, pre-emergence (Solanum nigrum (SOLNI) [8]): 80%; Percentage damage SETFA, pre-emergence (Setaria faberi (SETFA) [9]): 80%; Percentage damage IPOHE, pre-emergence [10]: 0%; Percentage damage ALOMY, pre-emergence [11]: 70%; Percentage damage ECHCG, pre-emergence [12]: 90%
COC(=O)c1nc(C2CC2)nc(N)c1/C=C/C1CC1 [Compound 2-66, 4-Amino-2-cyclopropyl-5-(2-cyclopropyl-ethenyl)-6-methoxycarbonyl-pyrimidine] | 50 | 60 | 10 | 40 | 0 | 0 |  | 0 | 0 | 0 | 0 | 0 | 
COC(=O)c1nc(-c2ccc(Cl)c(OC)c2F)nc(N)c1C1CC1 [Compound 27-58, 4-Amino-2-(4-chloro-2-fluoro-3-methoxyphenyl)-5-cyclopropyl-6-methoxycarbonyl-pyrimidine] | 90 | 80 | 40 | 60 | 10 | 20 |  | 0 | 0 | 10 | 0 | 0 | 
